Key:
KSHV Pr [1] = target: T1, KSHV Pr (Human herpesvirus 8 type P, UniProt Q2HRB6, S204G); assay type: biochemical, human Kaposi's sarcoma-associated herpesvirus (KSHV); conditions: substitution from meta position to para or ortho
KSHV Pr dimer = KSHV Pr dimer (Human herpesvirus 8 type P, UniProt Q2HRB6, S204G); assay type: binding
p53-MDM2 = conditions: cited from earlier work
KSHV Pr [2] = target: T1, KSHV Pr; assay: Inhibition kinetics; assay type: biochemical, human Kaposi's sarcoma-associated herpesvirus (KSHV)
[3] = Dynamic light scattering for particle formation; assay type: physicochemical
wt KSHV Pr = wt KSHV Pr (Human herpesvirus 8 type P, UniProt Q2HRB6, S204G); assay type: binding; conditions: 23 μM 13C-Met wt KSHV Pr, 1 molar equivalence inhibitor (24 μM)
[4] = 1 -10 μM concentration range of DD2

## O=C(O)c1ccc(NC(=O)c2ccccc2CC2CCCCC2)c(Cc2ccccc2)c1 [Compound 5]
KSHV Pr [1]
  effect of moving the cyclohexylmethyl side chain on inhibition (SAR): diminished inhibition

## O=C(O)c1ccc(NC(=O)c2cccc(CC3CCCCC3)c2)c(Cc2ccccc2)c1 [Compound 1]
KSHV Pr dimer; data not shown
  results in size exclusion chromatography and HSQC experiments compared with DD2: produced similar results
p53-MDM2
  inhibition of the interaction of p53-MDM2: not found to inhibit

## O=C(O)c1ccc(NC(=O)c2cccc(CC3CCCCC3)n2)c(Cc2ccccc2)c1 [Compound 2]
KSHV Pr [2]; [4]
  decrease in Vmax: 3 fold
  increase in KM: 2.5 fold
KSHV Pr [2]; Lineweaver–Burk analysis
  type of inhibition: mixed-type inhibitor
[3]
  particle formation by dynamic light scattering: did not show evidence of particle formation
KSHV Pr dimer; 5 μM wt KSHV Pr pre-incubated with 30 μM compound
  elution profile of KSHV Pr (dimerization state): eluted predominantly as a monomer
Wt KSHV Pr
  M197-dimer peak in 1H-13C HSQC: broadens beyond detection

## O=C(O)c1ccc(NC(=O)c2ccc(CC3CCCCC3)cc2)c(Cc2ccccc2)c1 [Compound 4]
KSHV Pr [1]
  effect of moving the cyclohexylmethyl side chain on inhibition (SAR): diminished inhibition
